The source of these data is US8765767B2, “Positive allosteric modulators of mGluR2” (Bristol-Myers Squibb Company, priority 2012, dated 2014).

One assay deals with T1, human mGluR2 (Homo sapiens, UniProt Q14416).
T1 construct: expressed in transfected cells; host or cells: HEK293 clonal line
The assay can be described thus: mGluR2 cAMP assay (HTRF) in HEK293 cells clonally expressing human mGluR2. The following applies: HEK293 cells expressing human mGluR2, 1 μM forskolin, 1 μM LY-341495, 30 min. It is filed as cell-based. On the procedure:
• Cell Culture. Clonally expressed human mGluR2 in HEK293 background was glutamate starved overnight in media without glutamine (GIBCO MEM 12360), containing 10% FBS, 1% penicillin streptomycin. • cAMP Measurement. On the day of the assay, media was removed, cells washed with PBS, cells harvested and pelleted by centrifugation. Cell pellets were resuspended in stimulation buffer without forskolin and counted. A solution of 1.25×10^6 cells/mL was prepared and dispensed to plates using a Combi liquid handler (Thermo). A standard curve was created using a top concentration of cAMP of 1 μM in the stimulation buffer, 1:3 dilutions over 14 points in the absence of cells. Plates were read by time-resolved fluorescence at […] and a ratio was calculated via in house software, (665 nM/618 nM)*10^4. In house software converted the fluorescence value ratios to units of cAMP concentration, which is then used to calculate % inhibition for each test compound. • MGluR2 cAMP Assay Materials and Methods. Compounds were added to white, standard volume 384 non-binding surface plates (Corning 3574). Cells were resuspended in stimulation buffer consisting of Hanks Balanced Salt Solution (14175-095) pH 7.0, 20 mM HEPES, 2.0 mM CaCl2, 5.0 mM MgCl2, and 1 mM IBMX (Sigma 15879), 1 μM forskolin, and 1 μM LY-341495 for 30 min. Buffer without forskolin was used as a negative control. Solutions of D2 and cryptate detection reagents from the CISBIO dynamic cAMP kit (62AM4PEJ) were diluted 1:40 in lysis buffer. Lysis buffer consisted of 50 mM Phosphate Buffer pH 7.0, 800 mM Potassium Fluoride, 0.2% BSA, and 1.0% Triton. Assay reaction was terminated by addition of detection reagents in lysis buffer. One hour later, plates were read on a PE Viewlux. Data was extracted, and concentration response curves generated by fitting the data to a standard 4 parameter logistic equation from which EC50 values were determined.
(cAMP levels reflect the balance of adenylyl cyclase and phosphodiesterase activity.)

The test system of assay [1] is mGluR2/3. The following applies: rats treated with PCP; cited from earlier work.
Assay [2] deals with mGluR2/3. Particulars: GAD patients; cited from earlier work.
Assay [3] concerns mGluR2/3. Particulars: schizophrenia patients; cited from earlier work.

T1 sequence (Q14416 19-872): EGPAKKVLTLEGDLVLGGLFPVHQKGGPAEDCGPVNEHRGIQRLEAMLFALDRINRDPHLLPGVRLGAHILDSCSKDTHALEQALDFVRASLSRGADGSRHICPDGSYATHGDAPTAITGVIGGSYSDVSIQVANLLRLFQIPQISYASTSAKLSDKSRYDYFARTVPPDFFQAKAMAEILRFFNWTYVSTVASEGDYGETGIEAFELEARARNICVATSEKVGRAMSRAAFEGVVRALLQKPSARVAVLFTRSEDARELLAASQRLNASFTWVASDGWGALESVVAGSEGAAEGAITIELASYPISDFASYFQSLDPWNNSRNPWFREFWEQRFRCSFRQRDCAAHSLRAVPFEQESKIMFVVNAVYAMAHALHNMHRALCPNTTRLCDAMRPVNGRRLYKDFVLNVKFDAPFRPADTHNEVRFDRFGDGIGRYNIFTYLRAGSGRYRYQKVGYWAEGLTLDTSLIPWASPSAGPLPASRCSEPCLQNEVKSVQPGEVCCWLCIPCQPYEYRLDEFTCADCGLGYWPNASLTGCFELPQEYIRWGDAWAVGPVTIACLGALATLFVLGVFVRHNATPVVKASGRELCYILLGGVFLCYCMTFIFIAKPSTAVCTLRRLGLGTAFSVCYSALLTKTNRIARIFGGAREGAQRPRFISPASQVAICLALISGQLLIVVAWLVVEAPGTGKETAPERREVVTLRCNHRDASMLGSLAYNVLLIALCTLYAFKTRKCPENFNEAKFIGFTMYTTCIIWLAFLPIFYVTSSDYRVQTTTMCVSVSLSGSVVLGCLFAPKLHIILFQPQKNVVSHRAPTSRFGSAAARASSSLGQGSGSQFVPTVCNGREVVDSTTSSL

In the case of `COc1cccc(F)c1C1CC1CNc1ccn2c(CC(F)(F)F)cnc2c1C#N` (stereo not shown) [Example 27, 7-(((2-(2-Fluoro-6-methoxyphenyl)cyclopropyl)methyl)amino)-3-(2,2,2-trifluoroethyl)imidazo[1,2-a]pyridine-8-carbonitrile], on human mGluR2, the EC50 (in general, the midpoint of the concentration-response curve) came out at 20 nM.

Turning to `N#Cc1c(NCC2CC2c2ccccc2OC(F)(F)F)ccn2c(CC(F)(F)F)cnc12` (stereo not shown) [Example 28, 3-(2,2,2-Trifluoroethyl)-7-(((2-(2-(trifluoromethoxy)phenyl)cyclopropyl)methyl)amino)imidazo[1,2-a]pyridine-8-carbonitrile], the EC50 on human mGluR2 came to 59 nM.

`COc1ccccc1C1CC1CNc1ccn2c(CC(F)(F)F)cnc2c1C#N` (stereo not shown) [Example 29, 7-(((2-(2-Methoxyphenyl)cyclopropyl)methyl)amino)-3-(2,2,2-trifluoroethyl)imidazo[1,2-a]pyridine-8-carbonitrile]: a half-maximal effect on human mGluR2 (EC50) was put at 81 nM.

`N#Cc1c(NCC2CC2c2ccc(F)cc2)ccn2c(CC(F)(F)F)cnc12` (stereo not shown) [Example 30, 7-(((2-(4-Fluorophenyl)cyclopropyl)methyl)amino)-3-(2,2,2-trifluoroethyl)imidazo[1,2-a]pyridine-8-carbonitrile] had an EC50 at human mGluR2 of 108 nM.

`COc1cccc(F)c1[C@H]1C[C@@H]1CNc1ccn2c(CC3CC3)nnc2c1Cl` [Example 33, 8-Chloro-3-(cyclopropylmethyl)-N-(((1S,2S)-2-(2-fluoro-6-methoxyphenyl)cyclopropyl)methyl)-[1,2,4]triazolo[4,3-a]pyridin-7-amine]: at human mGluR2, it took 1 nM to reach a half-maximal effect (EC50).

In turn, `COc1cccc(F)c1[C@@H]1C[C@H]1CNc1ccn2c(CC3CC3)nnc2c1Cl` [Example 34, 8-Chloro-3-(cyclopropylmethyl)-N-(((1R,2R)-2-(2-fluoro-6-methoxyphenyl)cyclopropyl)methyl)-[1,2,4]triazolo[4,3-a]pyridin-7-amine] returned an EC50 at human mGluR2 of 1 nM.

As to `Clc1c(NC[C@H]2C[C@@H]2c2cccc3c2OCC3)ccn2c(CC3CC3)nnc12` [Example 35, 8-Chloro-3-(cyclopropylmethyl)-N-(((1S,2S)-2-(2,3-dihydrobenzofuran-7-yl)cyclopropyl)methyl)-[1,2,4]triazolo[4,3-a]pyridin-7-amine], a half-maximal response on human mGluR2 (EC50) required 3 nM.

Regarding `Clc1c(NC[C@@H]2C[C@H]2c2cccc3c2OCC3)ccn2c(CC3CC3)nnc12` [Example 36, 8-Chloro-3-(cyclopropylmethyl)-N-(((1R,2R)-2-(2,3-dihydrobenzofuran-7-yl)cyclopropyl)methyl)-[1,2,4]triazolo[4,3-a]pyridin-7-amine], it took 2 nM to reach a half-maximal effect on human mGluR2 (EC50).

In turn, `Fc1ccccc1[C@H]1C[C@@H]1CNc1ccn2c(CC3CC3)nnc2c1Cl` [Example 37, 8-Chloro-3-(cyclopropylmethyl)-N-(((1S,2S)-2-(2-fluorophenyl)cyclopropyl)methyl)-[1,2,4]triazolo[4,3-a]pyridin-7-amine] had an EC50 at human mGluR2 of 4 nM.

As for `Fc1ccccc1[C@@H]1C[C@H]1CNc1ccn2c(CC3CC3)nnc2c1Cl` [Example 38, 8-Chloro-3-(cyclopropylmethyl)-N-(((1R,2R)-2-(2-fluorophenyl)cyclopropyl)methyl)-[1,2,4]triazolo[4,3-a]pyridin-7-amine], at human mGluR2, the EC50 came out at 4 nM.

Molecule `CN(C[C@H]1C[C@@H]1c1ccc(F)cc1)c1ccn2c(CC3CC3)nnc2c1C(F)(F)F` [Example 39, 3-(Cyclopropylmethyl)-N-(((1S,2S)-2-(4-fluorophenyl)cyclopropyl)methyl)-N-methyl-8-(trifluoromethyl)-[1,2,4]triazolo[4,3-a]pyridin-7-amine] returned an EC50 on human mGluR2 of 1 nM.

On human mGluR2, `CN(C[C@@H]1C[C@H]1c1ccc(F)cc1)c1ccn2c(CC3CC3)nnc2c1C(F)(F)F` [Example 40, 3-(Cyclopropylmethyl)-N-(((1R,2R)-2-(4-fluorophenyl)cyclopropyl)methyl)-N-methyl-8-(trifluoromethyl)-[1,2,4]triazolo[4,3-a]pyridin-7-amine] came in with an EC50 of 7 nM.

`CN(C[C@H]1C[C@@H]1c1ccc(F)cc1)c1ccn2c(CC(F)(F)F)nnc2c1C(F)(F)F` [Example 41, N-(((1S,2S)-2-(4-fluorophenyl)cyclopropyl)methyl)-N-methyl-3-(2,2,2-trifluoroethyl)-8-(trifluoromethyl)-[1,2,4]triazolo[4,3-a]pyridin-7-amine] had a concentration giving a half-maximal response (EC50) on human mGluR2 of 2 nM.

On to `Fc1ccc(F)c([C@H]2C[C@@H]2CNc2ccn3c(CC4CC4)nnc3c2Cl)c1` [Example 43, 8-Chloro-3-(cyclopropylmethyl)-N-(((1S,2S)-2-(2,5-difluorophenyl)cyclopropyl)methyl)-[1,2,4]triazolo[4,3-a]pyridin-7-amine], for which the midpoint of the response on human mGluR2, the EC50, lay at 2 nM.

On human mGluR2, `Fc1ccc(F)c([C@@H]2C[C@H]2CNc2ccn3c(CC4CC4)nnc3c2Cl)c1` [Example 44, 8-Chloro-3-(cyclopropylmethyl)-N-(((1R,2R)-2-(2,5-difluorophenyl)cyclopropyl)methyl)-[1,2,4]triazolo[4,3-a]pyridin-7-amine] showed an EC50 of 2 nM.

Consider `N[C@@]1(C(=O)O)CC[C@H]2[C@H](C(=O)O)[C@H]21` [LY-354740], for which, in the assay with mGluR2/3 [1], the “behavioral effects of PCP (hyper-locomotion, working memory deficits)” value was “reversed the behavioral effects of PCP” and the brain glutamate levels entry was “lowered brain glutamate levels”.

Regarding `C[C@H](N)C(=O)N[C@@]1(C(=O)O)CC[C@H]2[C@H](C(=O)O)[C@H]21` [LY-544344], in the assay with mGluR2/3 [2], the “therapeutic effect for anxiety” value is listed as “therapeutic effects”.

Turning to `CSCC[C@H](N)C(=O)N[C@@]1(C(=O)O)CS(=O)(=O)[C@H]2[C@H](C(=O)O)[C@H]21` [LY-2140023], in the assay with mGluR2/3 [3], the “relief of positive and negative symptoms” value is “relief of positive and negative symptoms”.
